These results are taken from patent publication US7541044B2, “Administration of 5T4 antigen and immune response of cells expressing 5T4 and CEA antigens” (priority 2004, dated 2009).

The subject of data set [1] is colon carcinoma derived metastatic rat tumour line. The note with it: SC tumour line transfected with cytosine deaminase gene, then 5-fluorocytosine; cited from earlier work.
Data set [2] is described as follows: Adverse events, NCI-common toxicity criteria (BC1). The class given is in vivo, human. To be noted: attributed to oral cyclophosphamide. The protocol:
Further assessment was performed in out-patients on day 7. Biopsy of the injected tumour nodules was performed under local anaesthetic. The biopsies were snap-frozen in liquid nitrogen, then sectioned and fixed for histological assessment. Treatment with cyclophosphamide 100 mg/m^2 p.o. was commenced for 14 out of every 28 days. Patients were reviewed weekly for the first 8 weeks and end of study assessment, including tumour size and appropriate re-staging CT scans performed at 12 weeks. Response was assessed according to WHO criteria. Patients with stable or responding disease continued with cyclophosphamide at the discretion of the investigator. Toxicity was graded according to NCI-common toxicity criteria (version 2).
The main toxicity observed in the study was attributed to oral cyclophosphamide with the most frequent non-haematological events described as nausea (9 patients), alopecia (6 patients), headache (5 patients), anorexia (4 patients) and fatigue (4 patients). All of these events were grade I or II by NCI-CTC with the exception of one patient with grade III fatigue. Two patients had clinically significant haematological toxicity with grade III leucopenia and grade II neutropenia. No patients were admitted with neutropenic fever. […] During the study 3 patients with breast cancer experienced serious adverse events (patient 103 hypotension, dysarthria and left sided weakness, patient 104 trismus and tongue oedema and patient 108 deep vein thrombosis, hypotension and dyspnoea). None of the serious adverse events were considered related to MetXia-P450.

For data set [3], the system named is B16 melanoma lung metastases. To be noted: tk gene then ganciclovir; immunocompetent but not immunodeficient mice; cited from earlier work.

As to `Nc1nc(=O)[nH]cc1F` [5-fluorocytosine], in data set [1], the “regression in the volume of established liver tumours” value is 70%.

Take `O=P1(N(CCCl)CCCl)NCCCO1` (stereo not drawn) [cyclophosphamide]: in data set [2], the “clinically significant haematological toxicity (grade III leucopenia and grade II neutropenia)” value was “Two”; the fatigue is on record as 4 patients; the “grade III fatigue” value is “one”. In data set [2] (grade I or II), this molecule displayed an alopecia of 6 patients, an anorexia of 4 patients, a headache of 5 patients and a nausea of 9 patients.

Consider `Nc1nc(O)c2ncn(COC(CO)CO)c2n1` [ganciclovir], for which the “B16 melanoma lung metastases” value in data set [3] is listed as “marked reduction”.
